Assay results from ChEMBL document CHEMBL1201862, “PubChem BioAssay data set” (2004).
Each block holds one molecule with its values, some of them ahead of it. Active and inactive are the calls of the source.

What was measured:
[1] = molecular target: T1, Orexin/Hypocretin receptor type 1 (Homo sapiens, UniProt O43613); test: Homogeneous Time Resolved Fluorescence (HTRF)-based cell-based high throughput dose response assay for antagonists of the orexin 1 receptor (OX1R; HCRTR1). [Related pubchem assays (depositor defined):AID434989, AID435008, AID463079, AID485270, AID492963, AID492964, AID492965, AID493232, AID504717, AID504718]; type: functional
T1 sequence (O43613 whole entry): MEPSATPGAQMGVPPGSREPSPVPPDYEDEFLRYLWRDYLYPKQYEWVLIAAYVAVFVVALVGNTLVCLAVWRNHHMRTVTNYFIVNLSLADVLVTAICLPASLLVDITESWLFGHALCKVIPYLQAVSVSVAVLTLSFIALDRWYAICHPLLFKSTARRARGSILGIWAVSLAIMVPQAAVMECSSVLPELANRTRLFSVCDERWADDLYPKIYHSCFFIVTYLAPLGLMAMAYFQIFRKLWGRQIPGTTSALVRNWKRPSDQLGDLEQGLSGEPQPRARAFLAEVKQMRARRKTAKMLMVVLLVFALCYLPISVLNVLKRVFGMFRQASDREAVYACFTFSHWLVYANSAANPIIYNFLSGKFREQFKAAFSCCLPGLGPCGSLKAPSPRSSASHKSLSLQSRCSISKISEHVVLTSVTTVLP

[2] = system: CHO-K1; test: (§1) Counterscreen for antagonists of the orexin 1 receptor (OX1R; HCRTR1): Homogeneous time resolved fluorescence (HTRF)-based cell-based dose response assay to identify antagonists of the parental CHO-K1 cell line. [Related pubchem assays (depositor defined):AID434989, AID435008, AID463079, AID485270, AID492963, AID492964, AID492965, AID493232, AID504699, AID504701]; type: functional; conditions: Cricetulus griseus
[3] = viability of uninfected HEp-2 cells – cell-based, HTS, cytotoxicity control for RSV inhibitor project, dose response (AID 2410); type: functional; conditions: human respiratory syncytial virus
[4] = molecular target: T1, Orexin/Hypocretin receptor type 1; test: Fluorescence-based cell-based high throughput dose response assay for antagonists of the orexin 1 receptor (OX1R; HCRTR1). [Related pubchem assays (depositor defined):AID434989, AID435008, AID463079, AID485270, AID492963, AID492964, AID492965, AID493232, AID504717, AID504718]; type: functional
[5] = as §1, with “Fluorescence-based” for “Homogeneous time resolved fluorescence (HTRF)-based”, “cell-based high throughput” for “cell-based”, “CHO” for “CHO-K1”; type: functional
[6] = molecular target: T2, CAAX prenyl protease 2 (Saccharomyces cerevisiae S288c, UniProt Q03530); type: biochemical
T2 sequence (Q03530 whole entry): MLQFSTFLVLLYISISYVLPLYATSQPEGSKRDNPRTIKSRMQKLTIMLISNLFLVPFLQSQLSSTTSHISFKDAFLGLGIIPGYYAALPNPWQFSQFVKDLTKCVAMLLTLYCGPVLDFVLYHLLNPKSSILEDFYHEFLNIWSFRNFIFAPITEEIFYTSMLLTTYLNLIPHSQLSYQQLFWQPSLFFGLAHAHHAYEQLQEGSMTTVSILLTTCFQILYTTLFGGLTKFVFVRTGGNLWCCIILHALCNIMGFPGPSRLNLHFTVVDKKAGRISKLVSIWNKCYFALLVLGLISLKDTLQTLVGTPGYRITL

[7] = toxicity toward cultured mammalian cells – cell-based, plate reader, cherry-pick samples, cytotoxicity control, dose response (AID 504397); type: functional
[8] = molecular target: T3, Zinc finger protein mex-5 (Caenorhabditis elegans, UniProt Q9XUB2); test: potency of MEX-5 RNA-binding blockers – biochemical, C. elegans, fluorescence polarization, dose response (AID 1960)
T3 sequence (Q9XUB2 whole entry): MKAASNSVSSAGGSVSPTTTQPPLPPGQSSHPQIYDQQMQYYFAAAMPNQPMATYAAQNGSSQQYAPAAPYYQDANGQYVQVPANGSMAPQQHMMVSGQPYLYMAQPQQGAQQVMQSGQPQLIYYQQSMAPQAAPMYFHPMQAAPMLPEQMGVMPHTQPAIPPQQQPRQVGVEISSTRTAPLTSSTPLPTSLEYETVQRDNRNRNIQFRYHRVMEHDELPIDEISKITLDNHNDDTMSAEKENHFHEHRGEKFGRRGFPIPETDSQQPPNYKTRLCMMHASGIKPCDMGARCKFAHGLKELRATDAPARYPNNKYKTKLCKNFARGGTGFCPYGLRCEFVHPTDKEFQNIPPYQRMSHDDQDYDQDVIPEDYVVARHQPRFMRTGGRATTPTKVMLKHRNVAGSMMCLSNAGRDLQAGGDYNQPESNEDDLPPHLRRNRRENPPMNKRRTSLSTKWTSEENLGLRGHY

[9] = molecular target: T4, SUMO-activating enzyme (Homo sapiens, UniProt Q9UBT2); test: blockers of SAE1/SAE2–UBC9 SUMO transfer – biochemical, HTRF, uHTS, primary screen (AID 2006); type: protein-complex assay
T4 sequence (Q9UBE0 whole entry, the tested form may be a part): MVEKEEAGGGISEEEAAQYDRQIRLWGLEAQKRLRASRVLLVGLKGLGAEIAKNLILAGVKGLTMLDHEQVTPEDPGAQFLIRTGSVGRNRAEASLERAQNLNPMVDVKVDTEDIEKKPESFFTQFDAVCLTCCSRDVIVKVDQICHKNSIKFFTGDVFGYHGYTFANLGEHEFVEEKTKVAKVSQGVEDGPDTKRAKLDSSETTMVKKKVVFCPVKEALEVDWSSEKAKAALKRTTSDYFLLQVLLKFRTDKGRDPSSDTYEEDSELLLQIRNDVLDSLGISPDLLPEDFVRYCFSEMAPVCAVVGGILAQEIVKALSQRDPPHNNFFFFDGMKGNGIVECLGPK
T4 sequence (Q9UBT2 whole entry, the tested form may be a part): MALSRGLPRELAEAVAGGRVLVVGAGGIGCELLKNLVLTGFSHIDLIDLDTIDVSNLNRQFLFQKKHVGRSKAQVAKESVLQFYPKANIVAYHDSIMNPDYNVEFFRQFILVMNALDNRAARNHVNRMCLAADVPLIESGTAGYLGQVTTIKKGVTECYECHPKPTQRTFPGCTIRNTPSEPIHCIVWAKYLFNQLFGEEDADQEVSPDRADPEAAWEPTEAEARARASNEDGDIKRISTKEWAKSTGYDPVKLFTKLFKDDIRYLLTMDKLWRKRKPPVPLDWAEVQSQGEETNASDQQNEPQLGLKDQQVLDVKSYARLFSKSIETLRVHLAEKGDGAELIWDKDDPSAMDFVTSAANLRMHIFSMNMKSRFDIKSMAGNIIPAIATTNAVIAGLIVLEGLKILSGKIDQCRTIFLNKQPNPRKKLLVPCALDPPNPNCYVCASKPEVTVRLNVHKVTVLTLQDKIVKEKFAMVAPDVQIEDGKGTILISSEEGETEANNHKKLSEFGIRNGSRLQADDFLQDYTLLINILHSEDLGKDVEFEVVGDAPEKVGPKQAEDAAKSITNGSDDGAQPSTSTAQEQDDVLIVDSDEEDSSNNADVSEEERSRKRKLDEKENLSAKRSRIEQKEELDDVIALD

[10] = molecular target: T5, RNA-binding protein pos-1 (Caenorhabditis elegans, UniProt G5EF15); test: disruptors of C. elegans POS-1 RNA interaction – biochemical, fluorescence polarization, dose response (AID 1964);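 further: purified POS-1 fused to maltose binding protein made in E. coli; potency of compounds blocking POS-1 binding to fluorescent RNA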
T5 sequence (G5EF15 whole entry): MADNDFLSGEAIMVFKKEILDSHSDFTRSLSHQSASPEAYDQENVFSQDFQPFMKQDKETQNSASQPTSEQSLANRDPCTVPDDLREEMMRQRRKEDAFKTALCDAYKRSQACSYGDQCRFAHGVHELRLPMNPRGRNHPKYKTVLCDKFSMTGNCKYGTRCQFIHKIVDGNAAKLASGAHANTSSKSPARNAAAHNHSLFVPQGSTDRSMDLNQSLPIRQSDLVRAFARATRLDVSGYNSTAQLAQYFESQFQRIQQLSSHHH

[11] = molecular target: T4, SUMO-activating enzyme; test: blockers of UBC9-mediated SUMO conjugation – biochemical, AlphaScreen, SUMOylation inhibitor project, confirmation (AID 2018); type: functional

Structure (SMILES): Cc1cc(C)nc(N=C(N)Nc2ccc(SC(F)F)cc2)n1
- IC50 [1]: 57 µM (inactive)
- IC50 [2]: > 66.2 µM (inactive)
- CC50 [3]: 16.1 µM (active)
- IC50 [4]: 14.7 µM (inactive)
- IC50 [5]: 22.1 µM (inactive)

Structure (SMILES): Cc1ccc(-c2csc(N3CCN(c4cc5c(cc4Cl)nc(-c4ccncc4)n5CCOCCO)CC3)n2)cc1
- AC50 [6]: 6.2 µM (active)
- AC50 [7]: 231 µM (active)

- EC50 [8]: 14.9 µM (active)
- IC50 [9]: 74.2 µM (active)
- EC50 [10]: 21.6 µM (active)
- IC50 [11]: 4.2 µM (active)
Structure (SMILES): CC(=O)c1ccc(-c2ccc(/C=C(/Sc3n[nH]c(C)n3)C(=O)O)o2)cc1
